For data set [1] the following is noted: cited from earlier work.
The next data set relates to human CD4+ T cells. The experiment in a line: Induced Treg differentiation assay. The class given is cell-based. The settings on record: U87 cells preincubated with 20 µM ATP plus heparin; supernatant added to CD4+ T cells, day 5 flow cytometry. The method, then:
Human CD4^+ T cells were extracted from buffy coats by positive selection using the StraightFrom™ Buffy Coat CD4 MicroBead Kit (Miltenyi Biotec, Bergisch Gladbach, Germany). CD4^+ T cells were stimulated by ImmunoCult™ Human CD3/CD28/CD2 T Cell Activator at day 1. At days 1 and 3, the indicated compounds or U87 cell supernatant, either of untreated or of heparin-treated cells were added to CD4^+ T cells. Cells were harvested at day 5 and were investigated for CD25 and FoxP3 expression. Therefore, cells were washed once with staining buffer (1% BSA, 0.01% NaN3 in PBS). To avoid nonspecific binding, cells were blocked for 15 min with 3% BSA in PBS. Anti-CD25 antibody (PerCP/Cyanine5.5 anti-human CD25 antibody, RRID : AB_2125478, BioLegend Inc, San Diego, CA, USA) was added and the cells were incubated for 30 min in the dark. Subsequently, cells were washed once with staining buffer and fixed in 150 µL of fixation buffer (3% paraformaldehyde (PFA), 0.1% saponin, and 0.5% Tween-20 in Dulbecco's phosphate-buffered saline) for 30 min at 4°C. […] Samples were measured in triplicates using the Guava® easyCyte HT Flow Cytometer (Merck Millipore, Billerica, MA, USA). Compensation and FMO (fluorescence minus one) controls were conducted. […] Data were evaluated using the FlowJo™ v10.5.3 Software (RRID : SCR_008520, BD Life Sciences, Franklin Lakes, NJ, USA) and Graphpad PRISM 8.4.0.
On the technique in general: Flow cytometry measures light scatter and fluorescence of single cells or particles in a stream.

The target in another data set is T1, human NTPDase2 (Homo sapiens, UniProt Q9Y5L3).
T1 construct: made in house; host or cells: COS-7 cells
T1 sequence (Q9Y5L3 1-495): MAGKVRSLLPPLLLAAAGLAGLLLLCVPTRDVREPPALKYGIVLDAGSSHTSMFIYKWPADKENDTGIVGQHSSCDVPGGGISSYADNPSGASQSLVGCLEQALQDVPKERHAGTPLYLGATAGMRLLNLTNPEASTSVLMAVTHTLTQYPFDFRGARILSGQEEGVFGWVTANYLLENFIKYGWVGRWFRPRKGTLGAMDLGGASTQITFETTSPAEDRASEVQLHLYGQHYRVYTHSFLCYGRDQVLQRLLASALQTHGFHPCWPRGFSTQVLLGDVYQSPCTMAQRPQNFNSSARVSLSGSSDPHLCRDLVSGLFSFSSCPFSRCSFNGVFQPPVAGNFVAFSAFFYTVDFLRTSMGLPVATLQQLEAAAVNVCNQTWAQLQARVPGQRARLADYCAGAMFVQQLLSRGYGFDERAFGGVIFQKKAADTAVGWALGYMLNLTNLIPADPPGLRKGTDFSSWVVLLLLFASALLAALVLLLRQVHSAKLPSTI
Nature of the data set: NTPDase CE-based assay, NTPDase2. In kind it is biochemical. The following applies: 20 µg/mL (12 µM); read-out: NTPDase2 inhibition, selectivity study. The method, then:
For monitoring the activity of human NTPDases (subtypes 1, 2, 3 and 8) in the presence of test compounds, a CE-based assay system was used, according to a published procedure ([11], [25]). The following concentrations of test compounds were investigated in initial screening studies: 63 IU/mL of compounds 1 and 2, 30 µM of compound 6. For selectivity studies, the following concentration were employed: 50 IU/mL of 1, 12 µM of 6, and 48 µM of 7. The amount of enzyme was selected according to previously performed enzymatic titration, and adjusted to ensure a 10–20% conversion rate. Enzymes were obtained by transfection of COS-7 cells using plasmids encoding human NTPDase1 (GenBank accession number U87967) ([26]), NTPDase2 (NM_203468) ([27]), a kind gift of Dr. A.F. Knowles (San Diego, CA), NTPDase3 (AF034840) ([28]), a kind gift of Dr. T.L. Kirley (Cincinnati, OH) and human NTPDase8 (AY430414) ([29]) and purified as previously described ([30], [31]). The reaction buffer consisted of 10 mM HEPES, 2 mM CaCl2, and 1 mM MgCl2, pH 7.4. In the CE assay, the selected substrate concentration (ATP) was 100 µM for all studied human NTPDases (-1, -2, -3 and -8). […] The released products were separated by CE and quantified by their UV-absorption at 260 nm with ADP and AMP as external standards, as previously described ([11]); positive and negative controls were included.

SMILES strings stand for the structures.

What is called half-life is the time in which the quantity being followed falls by half. What is called inhibition is the percentage by which the read-out fell short of the control. Take `CO[C@H]1O[C@H](COS(=O)(=O)O)[C@@H](O[C@@H]2O[C@@H](C(=O)O)[C@@H](O[C@H]3O[C@H](COS(=O)(=O)O)[C@@H](O[C@@H]4O[C@H](C(=O)O)[C@@H](O[C@H]5O[C@H](COS(=O)(=O)O)[C@@H](O)[C@H](O)[C@H]5NS(=O)(=O)O)[C@H](O)[C@H]4O)[C@H](OS(=O)(=O)O)[C@H]3NS(=O)(=O)O)[C@H](O)[C@H]2OS(=O)(=O)O)[C@H](O)[C@H]1NS(=O)(=O)O` [Compound 6, Fondaparinux]: in data set [1], the half-life is listed as 17 h. In addition, the “Treg formation (CD25/FoxP3 positive cells) induced by supernatant of ATP-treated U87 cells” value in the data set with human CD4+ T cells is “reduced Treg formation even below that of the control cells”. In addition, at human NTPDase2, the inhibition at 12 µM was ~35%.

The record behind these values is PMC10497752, “Heparins are potent inhibitors of ectonucleotide pyrophosphatase/phospho-diesterase-1 (NPP1) – a promising target for the immunotherapy of cancer” (Frontiers in Immunology, 2023).
